Test results reported in patent US20060154990A1, “Use of MEK inhibitors in treating abnormal cell growth” (AGOURON PHARMACEUTICALS, INC., priority 2004, published 2006).
Where “and” joins values, the source holds several entries; their conditions need not be identical. Identical values can stand only once.

Key:
[1] = test system: ERK phosphorylation in HCT-116 colon cells; assay: cells; conditions: Homo sapiens, HCT-116, 1 h, read-out: Cellular IC50
pERK in MiaPaCa2 tumors = assay: Tumor pERK inhibition and PK-PD in MiaPaCa2 xenograft; parameters: species or system mice; conditions: Mus musculus, MIA PaCa-2, 24 h, 25 mg/kg oral, read-out: Ex vivo % pERK inhibition at 24 h
[2] = test system: MiaPaCa-2 pancreatic xenograft; assay: Antitumor activity in MiaPaCa-2 tumor model; assay type: in vivo, mice; conditions: oral 25 mg/kg once a day for 14 days
[3] = Metabolites of [14C] Compound 1 in liver microsomes; assay type: in vitro ADME, human; conditions: [C-14] Compound 1 10 μM, 90 mins
Description: (§1) Incubations were performed in hepatocytes for 3 hours and liver microsomes for 1.5 hours and were stopped with the addition of methanol. HPLC, in conjuction with ionspray 3D iontrap mass spectrometry, and simultaneous radioactive monitoring were used to detect and identify the resulting metabolites.
(§2) This acid cleavage product is further metabolized to form hydroxylated (M 11, 16% in rat) and hydroxylated, defluorinated products (M 17, 19% in rat).

clinical = conditions: human, plasma, oral
Description: (§4) Pharmacokinetic data are presented for the first 38 subjects.
(§5) Blood samples were collected from patients into a purple-top potassium EDTA Vacutainer tube. Following mixing with gentle inversion (8-10 times), tubes were centrifuged within 20 minutes at 1000×g for 15 minutes, to harvest plasma. Plasma samples were stored at −20° C. until analysis.
(§6) The following results are based on preliminary pharmacokinetic parameters from the 38 subjects, estimated using nominal collection times and quality-controlled, non quality-assured bioanalytical data. Pharmacokinetic parameters were determined by the non-compartmental method using WINNONLIN Professional Edition (Version 4.1). […] The maximum observed concentration (Cmax) was obtained by inspection of the concentration data. The time to reach the Cmax was the first time at which Cmax is observed and obtained by inspection of the data. The pre-dose concentration (Ctrough) was obtained by inspection of the concentration data.

Ki67 in tumor biopsies = assay: Immunohistochemical analysis of Ki67 in paired tumor biopsies; assay type: in vivo, human
Description: The same biopsy specimens, as analyzed for pERK. staining described in Example 10, were also assessed for the amount of Ki67 detectable by immunohistochemistry. The Ki67 marker is considered an indicator of cell proliferation and thus reduction in Ki67 staining levels may be correlated with anti-tumor activity of therapeutic agents. Tissue sections from the paraffin-embedded biopsy tissues were pretreated with Heat-induced Epitope Retrieval (in this case, microwaving for 3 minutes) prior to the Ki67 detection procedure. The antibody used was the mouse monoclonal Ki67/MM1 manufactured by Novocastra Laboratories, Ltd. (catalog number: NCL-Ki67-MM1). […] Scoring of staining intensity was performed in same manner as for pERK assay, with H-scores generated for each section. For Ki67, only 1 section was assayed for each biopsy specimen.

[4] = Plasma pharmacokinetics after multiple oral doses in advanced cancer patients
Description: as §4, §5, §6

[5] = Metabolites of [14C] Compound 1 in cryopreserved hepatocytes; assay type: in vitro ADME, rat; conditions: [C-14] Compound 1 10 μM, 180 mins
Description: as §1
(§3) Metabolite identification of radiolabeled Compound 1 was performed after incubation with rat, dog, monkey and human cryopreserved hepatocytes and liver microsomes. […] Besides glucuronidation, metabolites derived from other clearance pathways are also observed. For instance, M 15 (acid cleavage product) accounts for 11% of the total radioactivity in the human chromatogram.

[6] = test system: ERK phosphorylation in MDCK cells; assay: cells; conditions: Canis lupus familiaris, 1 h, read-out: Cellular IC50
[7] = test system: BxPc-3 pancreatic xenograft; assay: Antitumor activity in BxPc-3 tumor model; assay type: in vivo, mice; conditions: oral 25 mg/kg once a day for 14 days
[8] = Metabolites of [14C] Compound 1 in liver microsomes; assay type: in vitro ADME, dog; conditions: [C-14] Compound 1 10 μM, 90 mins
Description: as §1, §2

pERK in BxPC-3 tumors = assay: Tumor pERK inhibition and PK-PD in BxPC-3 xenograft; assay type: in vivo, mice; conditions: BxPC-3 tumor, 25 mg/kg oral
[9] = Metabolites of [14C] Compound 1 in cryopreserved hepatocytes; assay type: in vitro ADME, human; conditions: [C-14] Compound 1 10 μM, 180 mins
Description: as §1, §3

[10] = test system: ZR-75-1 (human tumor of unknown phenotype); assay: Antitumor activity in ZR-75-1 tumor model; assay type: in vivo, mice; conditions: ZR-75-1 (unknown phenotype), oral 25 mg/kg once a day for 14 days
[11] = Metabolites of [14C] Compound 1 in cryopreserved hepatocytes; assay type: in vitro ADME, monkey; conditions: [C-14] Compound 1 10 μM, 180 mins
Description: as §1, §3

[12] = 1 mg BID, melanoma, individual patient
[13] = 1 mg QD, breast, individual patient
[14] = 1 mg QD, melanoma, individual patients
[15] = 2 mg BID, colon, individual patient
[16] = 2 mg BID, lung, individual patient
[17] = 2 mg BID, melanoma, individual patients
[18] = 4 mg BID, melanoma, individual patient
[19] = 15 mg BID, breast, individual patient
[20] = 15 mg BID, melanoma, individual patient
[21] = 20 mg BID continuous, melanoma, individual patients
[22] = 30 mg BID, melanoma, individual patient
[23] = patients, 1 mg BID, C1D21, fasting, mean
[24] = patients, 1 mg QD, C1D21, fasting, mean
[25] = patients, 2 mg BID, C1D21, fasting, mean
[26] = patients, 15 mg BID, C1D21, fasting, mean
[27] = patients, 20 mg BID continuous, C1D21, fasting, mean

## O=C(NOC[C@H](O)CO)c1ccc(F)c(F)c1Nc1ccc(I)cc1F [Compound 1, N-[(R)-2,3-dihydroxy-propoxy]-3,4-difluoro-2-(2-fluoro-4-iodo-phenylamino)-benzamide]
[1]
  IC50: 280 pM
pERK in MiaPaCa2 tumors
  inhibition at 25 mg/kg: 93%
[2]
  CR (complete responder): 1/9
  PR (partial responder): 0/9
  T − C: 16.8 days
  Tumor Free: 0/9
[3]
  % ROI Human: 77.36%
clinical
  half-life: 5 to 14 h
clinical; 1 mg
  Cmax: 41.1 ng/mL
  Tmax: 1 h
  half-life: 13.9 h
clinical; 2 mg
  Cmax: 152 ng/mL
  Tmax: 1 h
clinical; 4 mg
  AUC(0-t): 1580 ng·h/mL
  Cmax: 208 ng/mL
  Tmax: 1 h
  concentration at 21 day: 82 ng/mL
  half-life: 7.6 h
clinical; 15 mg
  Cmax: 706 ng/mL
  Tmax: 1 h
  half-life: 12.6 h
clinical; 20 mg
  AUC(0-t): 6990 ng·h/mL
  Cmax: 766 ng/mL
  Tmax: 2 h
  concentration at 21 day: 440 ng/mL
  half-life: 8.3 h
clinical; 30 mg
  AUC(0-t): 12500 ng·h/mL
  Cmax: 1640 ng/mL
  Tmax: 2 h
  concentration at 21 day: 500 ng/mL
  half-life: 4.8 h
Ki67 in tumor biopsies; baseline Ki67 scores above 20, 2 mg BID to 30 mg BID (N=13)
  average Ki67 decline: 49%
Ki67 in tumor biopsies; baseline Ki67 scores above 20, all dose groups (N=18)
  average Ki67 decline: 39%
Ki67 in tumor biopsies; tumor biopsies Day 15, 1 mg QD to 30 mg BID (N=22)
  average Ki67 decline: 31%
Ki67 in tumor biopsies; tumor biopsies Day 15, 2 mg BID to 30 mg BID (N=19)
  average Ki67 decline: 46%
[4]; [12]
  Compound 1 AUC(0-24), Day 21: 275 ng·h/mL
  Compound 1 Css, avg: 11 ng/mL
[4]; [13]
  Compound 1 AUC(0-24), Day 21: 130 ng·h/mL
  Compound 1 Css, avg: 5.4 ng/mL
[4]; [14]
  Compound 1 AUC(0-24), Day 21: 170 ng·h/mL and 112 ng·h/mL
  Compound 1 Css, avg: 7.1 ng/mL and 4.7 ng/mL
[4]; [15]
  Compound 1 AUC(0-24), Day 21: 898 ng·h/mL
  Compound 1 Css, avg: 37 ng/mL
[4]; [16]
  Compound 1 AUC(0-24), Day 21: 943 ng·h/mL
  Compound 1 Css, avg: 39 ng/mL
[4]; [17]
  Compound 1 AUC(0-24), Day 21: 785 ng·h/mL and 2020 ng·h/mL
  Compound 1 Css, avg: 33 ng/mL and 84 ng/mL
[4]; 4 mg BID, lung, individual patient
  Compound 1 AUC(0-24), Day 21: 1974 ng·h/mL
[4]; [18]
  Compound 1 AUC(0-24), Day 21: 1426 ng·h/mL
  Compound 1 Css, avg: 59 ng/mL
[4]; [19]
  Compound 1 AUC(0-24), Day 21: 7680 ng·h/mL
  Compound 1 Css, avg: 320.0 ng/mL
[4]; [20]
  Compound 1 AUC(0-24), Day 21: 2480 ng·h/mL
  Compound 1 Css, avg: 103.3 ng/mL
[4]; [21]
  Compound 1 AUC(0-24), Day 21: 5480 ng·h/mL and 5800 ng·h/mL
  Compound 1 Css, avg: 228.3 ng/mL and 241.7 ng/mL
[4]; 20 mg BID, melanoma, individual patient
  Compound 1 AUC(0-24), Day 21: 10560 ng·h/mL
[4]; 30 mg BID, colon, individual patient
  Compound 1 AUC(0-24), Day 21: 12000 ng·h/mL
[4]; [22]
  Compound 1 AUC(0-24), Day 21: 12920 ng·h/mL
  Compound 1 Css, avg: 538.3 ng/mL
[4]; fasted state, inter-subject variability
  overall coefficient of variation (CV) for AUC(0-24): 39%
[4]; patients
  elimination plasma half-life: 5 to 16 h
[4]; [23]
  AUC(0-24): 338 ng·h/mL
  Ctrough: 9.17 ng/mL
[4]; [24]
  AUC(0-24): 143 ng·h/mL
  Cmax: 22.3 ng/mL
  Ctrough: 3.00 ng/mL
  Tmax: 2 h
[4]; [25]
  AUC(0-24): 1161 ng·h/mL
  Ctrough: 27.4 ng/mL
[4]; patients, 4 mg BID, C1D21, fasting, mean
  Ctrough: 28.0 ng/mL
[4]; [26]
  AUC(0-24): 5687 ng·h/mL
  Ctrough: 142 ng/mL
[4]; [27]
  AUC(0-24): 6572 ng·h/mL
  Cmax: 989 ng/mL
  Ctrough: 83.7 ng/mL
  T1/2: 5.1 h
  Tmax: 2 h
[4]; patients, 20 mg BID, C1D21, fasting, mean
  Ctrough: 112 ng/mL
[4]; patients, 30 mg BID, C1D21, fasting, mean
  Ctrough: 157 ng/mL
[5]
  % ROI Rat: 72.06%
[6]
  IC50: 310 pM
[7]
  CR (complete responder): 2/10
  PR (partial responder): 8/10
  T − C: 20.6 days
  Tumor Free: 0/10
[8]
  % ROI Dog: 81.16%
pERK in BxPC-3 tumors
  inhibition of pERK expression 24 hours after dosing: 23%
[9]
  % ROI Human: 15.68%
[10]
  CR (complete responder): 7/8
  PR (partial responder): 1/8
  T − C: 24.2 days
  Tumor Free: 0/8
[11]
  % ROI Monkey: 23.46%
